Laboratory results reported in patent EP4714948A1, “COMPOUND USED FOR EGFR PROTEIN DEGRADATION, AND USE THEREOF” (TYK Medicines, Inc., priority 2023, dated 2024).

Columns and labels:
H1975 = assay: Cell antiproliferative assay (CTG, 72 h); format: cell-based; conditions: Homo sapiens, NCI-H1975, H1975 (EGFR T790M/L858R)
Description: (§1) H1975 has EGFR T790M/L858R dual mutation, PC-9 has EGFR exon 19 deletion mutation, and HCC827 has exon 19 deletion mutation. CellCounting Lite 2.0, Trypsin EDTA, 37 °C CO2 incubator, cell counter, EnVision Serial No.1050454.
(§2) • (A) Trypsin EDTA was used to digest log-phase cells, medium was added to terminate the digestion reaction, and a cell suspension was prepared by blowing and mixing with a pipette. • (B) Cell concentration was determined using Vi-cell, and a suspension of 15,000-25,000 cells per milliliter was made depending on the purpose of the experiment and the characteristics of the cells. • (C) After the cell suspension was ready, it was gently mixed and each well was added with 100µL so that the cell density to be tested was 1,500- 2,500 per well.
(§3) • A) About 2 mg of compound was weighed, and the volume of DMSO required was calculated according to the formula: compound mass (mg)*compound purity (%)/compound molecular weight*1000. • (B) The inoculated cell culture plates were incubated in an incubator. About 24 hours later, compounds were added at gradient concentrations. • (C) 10mM of compound reservoir solution was diluted to […] with medium, and […] of the compound solution was added sequentially to the second column of the deep-well plate, and […] of medium containing 0.5% DMSO was added to the third to eleventh columns. • D) Gradient dilution: 125 µl of solution was pipetted from the second column and added to the third column, after mixing; another 125 µl of solution was pipetted from the third column and added to the fourth column, and the operation was repeated until the tenth column. • (E) 25 µl of compound was pipetted from the deep-well plate into a 96-well culture plate using a multichannel pipette, and each compound was run in triplicate on the 96-well plate. A 1:4 concentration gradient was established on the 96-well plate, with a final highest concentration of 10,000 nM.
(§4) • (A) 96-well plates were incubated in an incubator for 72 h. The effect of the compounds was observed under an inverted microscope. • (B) 25 µl of CTG solution was added to each well. The plate was incubated on a shaker for 10 minutes and the OD value of each well was read.
(§5) The survival rate ( % Cell Viability) was calculated using the following formula: %Cell Viability = 100% × (Lum_Sample−Lum_LC)/(Lum_HC−Lum_LC) [formula] • Lum_HC: Cell reading of 0.1% DMSO control group • Lum_Sample: Cell readings of compound addition group • Lum_LC: Reading of blank medium • IC50 values were obtained by curve fitting using GraphPad Prism 8 software.

HCC827 = assay: Cell antiproliferative assay (CTG, 72 h); format: cell-based; conditions: Homo sapiens, HCC827 (exon 19 deletion)
Description: as §1, §2, §3, §4, §5

PC-9 = assay: Cell antiproliferative assay (CTG, 72 h); format: cell-based; conditions: Homo sapiens, PC-9 (EGFR exon 19 deletion)
Description: as §1, §2, §3, §4, §5

[1] = biological target: EGFR in BAF3-LTC (Baf3-L858R-T780M-C797S) (Homo sapiens, UniProt P00533, C797S/L858R/T790M); assay: EGFR PROTAC HTRF experiment (total EGFR degradation); format: cell-based; conditions: BAF3-LTC cells, 16 hours incubation
[2] = biological target: EGFR in BAF3-DTC (Baf3-19del-T780M-C797S) (Homo sapiens, UniProt P00533, C797S/DEL746-750/T790M); assay: as above; format: cell-based; conditions: BAF3-DTC cells, 16 hours incubation
[3] = Pharmacokinetic test on male SD rats; format: in vivo; conditions: gavage (p.o.), 10 mg/kg, plasma; for AUC(0-inf) / AUC(0-t) / Cmax / MRT last / Tmax: rat, po
Description: Healthy adult SD rats, male, a total of 3, 6-8 weeks old; Weighing 200-300 grams.
EDTA-Na2 anticoagulant: 11.2 g of EDTA-Na2 was weighted and placed into a reagent bottle. 100 mL of physiological saline was added and the mixture was shaken until completely dissolved. After preparation, the solution was aliquoted into 1.5 mL centrifuge tubes, each containing approximately 20 uL, for use in whole blood sample collection.
Approximately 10 mg of the test sample was accurately weighed. DMSO accounting for 10% of the total volume was added to dissolve the sample. Subsequently, 0.5% MC solvent accounting for 90% of the total volume was slowly added while stirring. The mixture was sonicated and vortexed evenly, and a visually homogeneous preparation solution was obtained, with a concentration of 1 mg/mL. This solution should be freshly prepared immediately before use.
0.2 mL of the sample was pipetted into a 1.5 mL centrifuge tube and stored at -80°C for concentration analysis of the dosing solution.
Animals were kept in rat cages and fasted for no less than 10 hours on the day before the experiment, but were allowed to drink water. The animals were individually weighed and marked on their tails. Prior to dosing, blank blood samples were collected from each animal via the tail vein.
• Administration route: gavage (p.o.) • Dosage concentration: 1mg/ml • Dosage: 10 mg/kg • Dosage volume: 10 mL/kg
Operation process: The rat was grasped with a left hand protected by a bite-resistant glove and held in an upright position. The gavage needle was inserted through the mouth and advanced towards the pharynx. The needle was advanced gently, ensuring no significant resistance was felt. The drug was then injected into the stomach.
At 0.5 h, 1 h, 2 h, 4 h, 6 h, 8 h, 12 h, and 24 h post-dosing, 0.1-0.2 mL of whole blood was collected from each test animal into EDTA-Na2 anticoagulant tubes. The tubes were mixed by inverting 3-4 times. The samples were centrifuged at 2000 × g and 4 °C for 5 minutes. The upper plasma layer was to separated, promptly transferred to -80 °C for storage until analysis. The blood was collected via tail vein.
A quantitative detection method for the test compound was established using a Shimadzu liquid chromatography system and a Triple Quad™ 6500+ AB mass spectrometry (MS) system. This method was used to analyze the concentration of the parent drug in plasma. The variation of the analysis results was controlled using quality control (QC) samples, and the accuracy of the QC samples was required to be within the range of 80%-120%.
The main pharmacokinetic parameters were calculated using the non-compartmental model (NCA) with the WinNonlin Phoenix software. These parameters include: area under the concentration-time curve (AUC(0-t) and AUC(0-∞)), elimination half-life (T1/2), maximum plasma concentration (Cmax), and time to reach maximum plasma concentration (Tmax), etc.

Chain of EGFR in BAF3-LTC (Baf3-L858R-T780M-C797S) (P00533 25-1210 T790M/C797S/L858R): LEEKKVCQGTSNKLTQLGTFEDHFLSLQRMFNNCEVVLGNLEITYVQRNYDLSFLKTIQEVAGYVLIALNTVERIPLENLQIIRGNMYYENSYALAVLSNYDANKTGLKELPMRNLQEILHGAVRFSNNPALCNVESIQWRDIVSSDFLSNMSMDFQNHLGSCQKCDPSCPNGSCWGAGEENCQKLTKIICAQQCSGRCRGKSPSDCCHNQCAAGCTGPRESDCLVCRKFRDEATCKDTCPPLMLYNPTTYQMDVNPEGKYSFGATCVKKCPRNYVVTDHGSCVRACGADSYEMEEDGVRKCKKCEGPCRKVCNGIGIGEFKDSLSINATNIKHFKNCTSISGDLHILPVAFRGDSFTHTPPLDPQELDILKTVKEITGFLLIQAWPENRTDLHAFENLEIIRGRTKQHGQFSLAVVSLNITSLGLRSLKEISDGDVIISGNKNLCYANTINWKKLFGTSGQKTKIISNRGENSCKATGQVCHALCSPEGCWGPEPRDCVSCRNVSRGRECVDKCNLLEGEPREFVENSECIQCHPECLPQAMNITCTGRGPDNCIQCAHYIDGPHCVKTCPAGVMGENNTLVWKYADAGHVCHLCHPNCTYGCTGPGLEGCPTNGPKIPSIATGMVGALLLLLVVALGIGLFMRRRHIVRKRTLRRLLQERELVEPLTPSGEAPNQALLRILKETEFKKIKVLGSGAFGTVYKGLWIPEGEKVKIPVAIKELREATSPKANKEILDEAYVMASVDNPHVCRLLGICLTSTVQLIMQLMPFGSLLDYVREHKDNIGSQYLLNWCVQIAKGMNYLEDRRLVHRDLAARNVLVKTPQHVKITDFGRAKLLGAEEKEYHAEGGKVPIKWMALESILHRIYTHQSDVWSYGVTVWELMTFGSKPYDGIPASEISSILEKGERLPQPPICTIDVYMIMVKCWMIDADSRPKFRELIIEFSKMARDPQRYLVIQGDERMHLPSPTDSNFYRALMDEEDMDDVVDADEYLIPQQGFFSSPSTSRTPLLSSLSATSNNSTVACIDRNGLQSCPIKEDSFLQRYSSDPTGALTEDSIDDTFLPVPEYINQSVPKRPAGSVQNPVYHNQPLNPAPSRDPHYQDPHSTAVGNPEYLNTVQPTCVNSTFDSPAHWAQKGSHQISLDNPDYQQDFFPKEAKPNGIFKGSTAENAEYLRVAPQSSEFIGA
Chain of EGFR in BAF3-DTC (Baf3-19del-T780M-C797S) (P00533 with tags, fused parts or gaps DEL746-750/T790M/C797S): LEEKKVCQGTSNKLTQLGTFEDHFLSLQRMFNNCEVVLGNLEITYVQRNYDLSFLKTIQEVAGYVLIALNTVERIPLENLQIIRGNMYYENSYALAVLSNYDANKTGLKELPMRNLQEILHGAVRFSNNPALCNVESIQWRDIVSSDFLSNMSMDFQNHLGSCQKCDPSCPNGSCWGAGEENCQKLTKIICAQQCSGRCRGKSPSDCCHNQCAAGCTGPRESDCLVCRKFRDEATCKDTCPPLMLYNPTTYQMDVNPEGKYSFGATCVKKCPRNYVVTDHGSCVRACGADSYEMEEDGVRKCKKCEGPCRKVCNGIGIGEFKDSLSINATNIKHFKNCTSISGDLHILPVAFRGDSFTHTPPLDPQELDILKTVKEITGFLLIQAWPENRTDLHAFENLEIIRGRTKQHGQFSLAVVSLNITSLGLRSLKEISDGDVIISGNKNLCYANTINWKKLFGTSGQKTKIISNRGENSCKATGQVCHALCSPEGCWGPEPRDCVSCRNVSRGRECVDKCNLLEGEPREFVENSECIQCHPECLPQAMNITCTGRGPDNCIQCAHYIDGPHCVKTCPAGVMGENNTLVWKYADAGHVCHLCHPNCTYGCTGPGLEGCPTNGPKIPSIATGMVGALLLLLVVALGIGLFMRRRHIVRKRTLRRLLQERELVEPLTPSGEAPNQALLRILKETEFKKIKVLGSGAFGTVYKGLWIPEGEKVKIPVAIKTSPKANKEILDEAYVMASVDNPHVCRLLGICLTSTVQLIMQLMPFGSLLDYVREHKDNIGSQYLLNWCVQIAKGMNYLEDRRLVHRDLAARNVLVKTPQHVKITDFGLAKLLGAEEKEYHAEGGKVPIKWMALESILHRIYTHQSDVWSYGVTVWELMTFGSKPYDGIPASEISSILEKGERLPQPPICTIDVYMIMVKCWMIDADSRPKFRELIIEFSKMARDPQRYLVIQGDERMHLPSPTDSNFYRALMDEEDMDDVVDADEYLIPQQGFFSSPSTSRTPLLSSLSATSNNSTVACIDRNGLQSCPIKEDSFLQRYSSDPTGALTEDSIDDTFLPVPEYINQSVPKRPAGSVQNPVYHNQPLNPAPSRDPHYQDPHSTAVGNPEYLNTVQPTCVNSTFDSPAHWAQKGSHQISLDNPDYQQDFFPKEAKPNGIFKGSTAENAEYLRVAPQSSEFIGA

Structure (SMILES)	IC50 (H1975) [nM]	IC50 (HCC827) [nM]	IC50 (PC-9) [nM]	DC50 [1] [nM]	Dmax [1] [%]	DC50 [2] [nM]	Dmax [2] [%]	HL_ [3] [h]	AUC(0-inf) [3] [ng·h/mL]	AUC(0-t) [3] [ng·h/mL]	Cmax [3] [ng/mL]	MRT last [3] [h]	Tmax [3] [h]
CCc1cc(Nc2ncc(Cl)c(Nc3ccccc3C(=O)NC)n2)c(OC)cc1N1CCN(C(=O)CN2CCC(c3ccc4c(N5CCC(=O)NC5=O)nn(C)c4c3)CC2)CC1 [Compound T-043]	< 10	10 to 100	100 to 1000	–	–	–	–	–	–	–	–	–	–
COc1cc(N2CCN(C(=O)CN3CCC(c4ccc(NC5CCC(=O)NC5=O)cc4)CC3)CC2)ccc1Nc1ncc(Cl)c(Nc2ccccc2-c2ncc[nH]2)n1 (stereo not shown) [Compound T-011]	10 to 100	100 to 1000	100 to 1000	100 to 1000	50 to 70	–	–	–	–	–	–	–	–
CCc1cc(Nc2ncc(Cl)c(Nc3ccccc3C(=O)NC)n2)c(OC)cc1N1CCN(C(=O)CN2CCC(c3c(F)cc(NC4CCC(=O)NC4=O)cc3F)CC2)CC1 (stereo not shown) [Compound T-068]	–	–	–	10 to 100	70 to 100	10 to 100	70 to 100	–	–	–	–	–	–
CNC(=O)c1ccccc1Nc1nc(Nc2cc(C)c(N3CCN(CCN4CCC(c5ccc(NC6CCC(=O)NC6=O)cc5)CC4)CC3)cc2OC)ncc1Cl (stereo not shown) [Compound T-021]	< 10	10 to 100	100 to 1000	100 to 1000	70 to 100	100 to 1000	70 to 100	–	–	–	–	–	–
CCc1cc(Nc2ncc(Cl)c(Nc3ccccc3C(=O)NC)n2)c(OC)cc1N1CCN(C(=O)CN2CCC(c3ccc(NC4CCC(=O)NC4=O)cc3)CC2)[C@@H](C)C1 (stereo partly shown) [Compound T-078]	–	–	–	–	–	–	–	5.45	10200	8600	714	9.06	6
CCc1cc(Nc2ncc(Cl)c(Nc3ccccc3C(=O)NC)n2)c(OC)cc1N1CCN(C(=O)CN2CCC(c3ccc4c(N5CCC(=O)NC5=O)nn(C)c4c3)C(F)(F)C2)CC1 (stereo not shown) [Compound T-013]	–	–	–	≤ 10	70 to 100	10 to 100	70 to 100	3.09	6730	6690	899	6.27	4
CCc1cc(Nc2ncc(Cl)c(Nc3ccccc3C(=O)NC)n2)c(OC)cc1N1CCN(C(=O)CN2CCC(c3ccc(NC4CCC(=O)NC4=O)cc3)CC2)[C@H](C)C1 (stereo partly shown) [Compound T-079]	10 to 100	100 to 1000	100 to 1000	–	–	–	–	4.02	7990	7720	673	4.67	4.67
COc1cc(N2CCN(C(=O)CN3CCC(c4ccc(NC5CCC(=O)NC5=O)cc4)CC3)CC2)ccc1Nc1ncc(Cl)c(Nc2ccccc2C(C)=O)n1 (stereo not shown) [Control Compound 1, reference compound]	–	–	–	–	–	–	–	3.47	2090	2060	227	7.32	5.33
COc1cc(N2CCN(C(=O)CN3CCC(c4ccc(NC5CCC(=O)NC5=O)cc4)CC3)CC2)ccc1Nc1ncc(Cl)c(Nc2ccccc2-n2ccnn2)n1 (stereo not shown) [Compound T-007]	10 to 100	100 to 1000	100 to 1000	100 to 1000	70 to 100	–	–	–	–	–	–	–	–
